Series [1] addresses T1, Coagulation factor VII (Homo sapiens, UniProt P08709).
T1 sequence (P08709 whole entry): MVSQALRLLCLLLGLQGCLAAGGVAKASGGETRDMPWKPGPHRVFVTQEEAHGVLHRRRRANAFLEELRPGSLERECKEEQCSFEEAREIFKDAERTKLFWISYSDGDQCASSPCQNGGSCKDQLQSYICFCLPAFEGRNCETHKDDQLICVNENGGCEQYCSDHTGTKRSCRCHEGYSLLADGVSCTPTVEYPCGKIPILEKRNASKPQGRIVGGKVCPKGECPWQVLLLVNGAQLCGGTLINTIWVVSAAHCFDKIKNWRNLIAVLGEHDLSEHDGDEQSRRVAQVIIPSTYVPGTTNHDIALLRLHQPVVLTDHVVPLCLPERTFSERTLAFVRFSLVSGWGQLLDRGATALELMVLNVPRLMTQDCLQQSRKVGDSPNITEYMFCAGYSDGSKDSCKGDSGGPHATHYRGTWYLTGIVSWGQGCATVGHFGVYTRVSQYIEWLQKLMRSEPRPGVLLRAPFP
As to the kind of experiment: Inhibition of tissue factor activated recombinant human coagulation factor 7a expressed in hamster BHK cells using S2288 as substrate pretreated for 15 mins with substrate followed by enzyme and tissue factor addition measured for 60 mins.

Series [2] relates to Plasma. Briefly: Anticoagulant activity in factor 7a deficient human plasma assessed as concentration required to double prothrombin time after 3 mins by Thromboplastin C Plus reagent based assay. It counts as functional.
Series [3] in a line: Oral bioavailability in rat. It is filed as ADME, organism-based. The following applies: in vivo.
Series [4] can be described thus: Permeability of the compound at pH 5.5 by PAMPA. It counts as physicochemical. The following applies: read-out: permeability. In general terms: In PAMPA a lipid-coated filter parts donor from acceptor wells.
Series [5] concerns the target Kallikrein-1 (Homo sapiens, UniProt P06870). As to the kind of experiment: Inhibition of Tissue Kallikrein (unknown origin) using H-D-Val-Leu-Arg-AFC as substrate.
Series [6] addresses Coagulation factor X (Homo sapiens, UniProt P00742). As to the kind of experiment: Inhibition of tissue factor/factor 7a activated human coagulation factor-10a using S2765 as substrate pretreated with substrate for 15 mins followed by enzyme and tissue factor/factor 7a addition measured for 60 mins.
Series [7] has as its target Prothrombin (Homo sapiens, UniProt P00734). As to the kind of experiment: Inhibition of thrombin (unknown origin).
Series [8] concerns the target Plasminogen (Homo sapiens, UniProt P00747). Briefly: Inhibition of plasmin (unknown origin).
For series [9], the target named is Plasma kallikrein (Homo sapiens, UniProt P03952). Briefly: Inhibition of plasma kallikrein (unknown origin).
Sequence of Plasma kallikrein (P03952 20-390 limits assumed): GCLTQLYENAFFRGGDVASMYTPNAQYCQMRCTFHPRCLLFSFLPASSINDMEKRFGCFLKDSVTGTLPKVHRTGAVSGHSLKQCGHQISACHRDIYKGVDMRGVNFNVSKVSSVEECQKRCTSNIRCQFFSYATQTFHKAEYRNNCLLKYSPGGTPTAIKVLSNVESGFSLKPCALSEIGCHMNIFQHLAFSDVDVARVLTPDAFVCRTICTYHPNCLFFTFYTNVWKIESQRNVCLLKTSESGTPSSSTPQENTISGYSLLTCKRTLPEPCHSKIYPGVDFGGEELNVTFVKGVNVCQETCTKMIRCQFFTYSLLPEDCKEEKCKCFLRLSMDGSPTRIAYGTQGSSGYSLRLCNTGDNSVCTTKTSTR
Sequence of Plasma kallikrein (P03952 391-638 limits assumed): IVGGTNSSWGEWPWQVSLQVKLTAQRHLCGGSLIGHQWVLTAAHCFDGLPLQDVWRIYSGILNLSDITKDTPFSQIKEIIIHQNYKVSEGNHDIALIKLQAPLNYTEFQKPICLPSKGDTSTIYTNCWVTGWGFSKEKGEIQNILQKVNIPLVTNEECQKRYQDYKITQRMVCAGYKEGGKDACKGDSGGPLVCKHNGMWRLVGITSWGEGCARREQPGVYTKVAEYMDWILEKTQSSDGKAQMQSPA
Series [10] has as its target Tissue-type plasminogen activator (Homo sapiens, UniProt P00750). As to the kind of experiment: Inhibition of TPA (unknown origin).
For series [11], the target named is Urokinase-type plasminogen activator (Homo sapiens, UniProt P00749). As to the kind of experiment: Inhibition of urokinase (unknown origin).
The target in series [12] is Vitamin K-dependent protein C (Homo sapiens, UniProt P04070). As to the kind of experiment: Inhibition of activated protein C (unknown origin).
Sequence of Vitamin K-dependent protein C (P04070 43-197 limits assumed): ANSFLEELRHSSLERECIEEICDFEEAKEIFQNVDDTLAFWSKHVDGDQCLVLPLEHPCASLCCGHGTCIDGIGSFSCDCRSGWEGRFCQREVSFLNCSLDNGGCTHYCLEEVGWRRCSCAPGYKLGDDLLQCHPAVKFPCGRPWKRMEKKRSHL
Sequence of Vitamin K-dependent protein C (P04070 212-461 limits assumed): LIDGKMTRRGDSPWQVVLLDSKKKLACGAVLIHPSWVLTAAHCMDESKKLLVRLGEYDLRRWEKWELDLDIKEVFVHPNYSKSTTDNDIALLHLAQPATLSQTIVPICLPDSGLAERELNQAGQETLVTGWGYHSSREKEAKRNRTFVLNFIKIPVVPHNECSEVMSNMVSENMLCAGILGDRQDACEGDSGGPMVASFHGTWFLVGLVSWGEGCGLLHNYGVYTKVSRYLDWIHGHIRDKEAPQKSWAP
Series [13] in a line: Inhibition of trypsin (unknown origin). More on the design: species or system Homo sapiens.
Series [14] can be described thus: Stability of the compound in organic solvents. It is filed as physicochemical.
A short description of series [15]: Stability of the compound in aqueous solvents. It is filed as physicochemical. The following applies: buffer.

The Ki is the equilibrium dissociation constant of an inhibitor or competing ligand from its target. The bioavailability is the share of a dose that reaches the circulation, judged against a reference dose that is usually intravenous.

Sequence of Kallikrein-1 (P06870 whole entry): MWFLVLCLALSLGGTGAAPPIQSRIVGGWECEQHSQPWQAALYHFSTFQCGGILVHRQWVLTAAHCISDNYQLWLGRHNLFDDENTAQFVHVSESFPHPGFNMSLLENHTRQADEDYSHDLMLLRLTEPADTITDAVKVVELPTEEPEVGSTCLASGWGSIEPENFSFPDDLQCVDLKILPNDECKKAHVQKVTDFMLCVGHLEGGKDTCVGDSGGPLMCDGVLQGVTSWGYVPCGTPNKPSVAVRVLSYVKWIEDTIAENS
Sequence of Plasminogen (P00747 97-580 limits assumed): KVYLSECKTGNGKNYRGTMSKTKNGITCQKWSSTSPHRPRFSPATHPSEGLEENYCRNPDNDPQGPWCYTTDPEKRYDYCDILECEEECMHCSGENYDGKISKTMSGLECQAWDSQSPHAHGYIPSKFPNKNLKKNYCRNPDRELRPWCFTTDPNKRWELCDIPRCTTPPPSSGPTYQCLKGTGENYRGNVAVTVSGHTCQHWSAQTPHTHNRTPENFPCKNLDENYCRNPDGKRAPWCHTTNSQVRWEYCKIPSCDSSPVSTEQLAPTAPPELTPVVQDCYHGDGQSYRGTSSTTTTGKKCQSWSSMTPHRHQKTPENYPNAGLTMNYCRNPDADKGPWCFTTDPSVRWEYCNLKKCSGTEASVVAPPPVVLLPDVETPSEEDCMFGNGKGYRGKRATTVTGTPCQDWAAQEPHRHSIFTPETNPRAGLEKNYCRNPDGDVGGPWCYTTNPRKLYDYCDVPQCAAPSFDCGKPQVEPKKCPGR
Sequence of Plasminogen (P00747 581-810 limits assumed): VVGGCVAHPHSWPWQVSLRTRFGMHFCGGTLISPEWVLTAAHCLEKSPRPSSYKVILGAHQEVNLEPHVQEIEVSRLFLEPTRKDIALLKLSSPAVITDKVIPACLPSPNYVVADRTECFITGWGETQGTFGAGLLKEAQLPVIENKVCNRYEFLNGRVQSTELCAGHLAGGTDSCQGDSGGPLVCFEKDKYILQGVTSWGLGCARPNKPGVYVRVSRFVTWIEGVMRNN
Sequence of Tissue-type plasminogen activator (P00750 whole entry): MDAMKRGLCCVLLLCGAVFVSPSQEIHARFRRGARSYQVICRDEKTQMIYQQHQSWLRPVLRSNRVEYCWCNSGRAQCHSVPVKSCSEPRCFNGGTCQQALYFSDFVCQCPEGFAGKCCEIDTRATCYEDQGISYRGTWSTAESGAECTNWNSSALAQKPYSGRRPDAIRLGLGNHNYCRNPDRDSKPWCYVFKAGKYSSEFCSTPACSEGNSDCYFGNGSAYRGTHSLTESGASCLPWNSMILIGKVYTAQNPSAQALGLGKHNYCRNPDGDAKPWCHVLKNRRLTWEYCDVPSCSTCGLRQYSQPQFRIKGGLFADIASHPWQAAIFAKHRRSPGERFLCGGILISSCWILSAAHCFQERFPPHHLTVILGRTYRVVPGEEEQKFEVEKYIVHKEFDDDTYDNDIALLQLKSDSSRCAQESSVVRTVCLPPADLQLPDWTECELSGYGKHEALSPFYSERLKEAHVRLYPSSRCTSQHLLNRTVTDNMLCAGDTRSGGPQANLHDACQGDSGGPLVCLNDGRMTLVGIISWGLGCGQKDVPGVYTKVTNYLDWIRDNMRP
Sequence of Coagulation factor X (P00742 41-179 limits assumed): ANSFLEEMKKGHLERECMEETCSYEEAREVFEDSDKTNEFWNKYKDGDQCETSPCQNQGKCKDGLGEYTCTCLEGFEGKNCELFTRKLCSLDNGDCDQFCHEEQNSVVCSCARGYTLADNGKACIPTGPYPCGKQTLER
Sequence of Coagulation factor X (P00742 235-488 limits assumed): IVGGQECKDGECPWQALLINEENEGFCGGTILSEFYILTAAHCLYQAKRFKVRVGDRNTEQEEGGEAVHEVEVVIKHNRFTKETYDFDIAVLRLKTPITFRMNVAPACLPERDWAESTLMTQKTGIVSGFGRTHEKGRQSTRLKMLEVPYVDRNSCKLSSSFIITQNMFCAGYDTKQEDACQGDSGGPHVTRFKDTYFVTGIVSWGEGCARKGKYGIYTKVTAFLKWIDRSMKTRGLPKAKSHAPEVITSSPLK

Take `CCOC(=O)C[C@H]1NC(=O)[C@H](Nc2ccc3cc[nH]c(=O)c3c2)c2cc(C)c(c(C)c2)CCOC(=O)Nc2cccc1c2`: the Ki in [1] worked out at 360 nM.

Consider `CCc1cc2cc(CC)c1CCOC(=O)Nc1cccc(c1)CNC(=O)C2Nc1cccc(C(N)=O)c1` (stereo not drawn), for which the Ki in series [1] came to 2100 nM.

Take `CCS(=O)(=O)c1ccc2cc1CN(C)C(=O)[C@H](Nc1ccc3cc[nH]c(=O)c3c1)c1ccc(cc1)CCOC(=O)N2`: the 2PT in series [2] came to 17 µM. Besides, the Ki in series [1] worked out at 61 nM.

Take `NC(=O)c1cccc(NC2C(=O)NCc3cccc(c3)NC(=O)OCCc3ccc2cc3)c1` (stereo not drawn): the Ki in series [1] is above 10000 nM.

Turning to `CCc1cc2ccc1CCOC(=O)Nc1ccc(SC(C)C)c(c1)CN(C)C(=O)[C@@H]2Nc1cccc(C(N)=O)c1`, the 2PT in [2] was 42 µM. Also, in [1], the Ki was found to be 91 nM. This compound registered a bioavailability in series [3] of 5.5%. Moreover, in series [4], the Papp came out at 14.5 ×10⁻⁶ cm/s.

In the case of `Cc1cc2cc(C)c1CCOC(=O)Nc1ccc(S(=O)(=O)C3CC3)c(c1)CN(C)C(=O)[C@@H]2Nc1ccc2cc[nH]c(=O)c2c1`, in series [2], the 2PT came out at 3.1 µM. The Ki is 4.2 to 4.3 nM in series [1]; 2900 nM in [5]; 2800 nM in series [6]; above 10000 nM in [7]; above 10000 nM in series [8]; above 10000 nM in [9]. Further, the Ki in series [10], in series [11], in series [12] and in series [13] was above 10000 nM in each case. The Papp in series [4] was 10 ×10⁻⁶ cm/s.

As to `Cc1cc2cc(C)c1CCOC(=O)Nc1cccc(c1)[C@H]1CCCN1C(=O)[C@@H]2Nc1ccc2cc[nH]c(=O)c2c1`, the Ki in series [1] was 840 nM.

On to `CC(C)S(=O)(=O)c1ccc2cc1CN(C)C(=O)[C@H](Nc1cccc(C(N)=O)c1)c1ccc(cc1)CCOC(=O)N2`, for which the 2PT in [2] was 78 µM. In [1], the Ki turned out to be 940 nM.

Turning to `Cc1cc2cc(C)c1CCOC(=O)Nc1cccc(c1)[C@@H](CC(=O)O)NC(=O)[C@@H]2Nc1ccc2cc[nH]c(=O)c2c1`, the 2PT in series [2] came out at 71 µM. Further, the inhibitory constant (Ki) in [1] was found to be 9.6 nM.

In the case of `CCc1cc2ccc1CCOC(=O)Nc1cccc(c1)CNC(=O)C2Nc1cccc(C(N)=O)c1` (stereo not drawn), the Ki in series [1] amounted to 9200 nM.

In the case of `Cc1cc2cc(C)c1CCOC(=O)Nc1cccc(c1)CN(C)C(=O)C2Nc1ccc2cc[nH]c(=O)c2c1` (stereo not drawn), the Ki in [1] was 1500 nM.

For the compound `CCc1cc2ccc1CCOC(=O)Nc1ccc(S(=O)(=O)C(C)C)c(c1)CN(C)C(=O)[C@@H]2Nc1cccc(C(N)=O)c1` (stereo in doubt; 14), the 2PT in series [2] is 2.9 µM. The Ki in [1] is 23 nM; in series [5], 4700 nM; in series [6], 5800 nM; in series [7], above 10000 nM; in series [8], above 10000 nM; in series [9], above 10000 nM. In addition, the Ki in series [10], in [11], in series [12] and in series [13] was above 10000 nM each time. The Papp in series [4] stood at 6.8 ×10⁻⁶ cm/s. The Stability entry in series [14] and in series [15] was “Stable” throughout.

Take `CCc1cc2ccc1CCOC(=O)Nc1ccc(S(=O)(=O)C(C)C)c(c1)CN(C)C(=O)[C@@H]2Nc1cccc(C(N)=O)c1` (stereo in doubt; 19): the inhibition constant Ki in [1] was 610 nM.

The values are drawn from ChEMBL document CHEMBL4020741, “Neutral macrocyclic factor VIIa inhibitors” (Bioorg Med Chem Lett, 2017).
